Source: US20220024921A1, “1,3,4-OXADIAZOLONE COMPOUND AND PHARMACEUTICAL” (NIPPON SHINYAKU CO., LTD., priority 2018, published 2022)

Experiments:
[1] = target: PIM1 transgenic cells (Ba/F3) (Homo sapiens, UniProt P11309); assay: Proliferation inhibitory effect on PIM1 transgenic cells; assay type: cell-based, mouse; settings: proliferation inhibition, 72 hours, Cell Counting Kit-8, read-out: PIM1 IC50
Outline: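 Mouse Ba/F3 pro-B cells were retrovirally transduced with human PIM1 so that their proliferation depends on PIM1. Cells were treated with compound at 1–10000 nM final for 72 h, then read by CCK-8 (OD450−OD650). Inhibition was set against DMSO (0%) and no-cell blank (100%), and IC50 was obtained by two-parameter logistic regression.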

[2] = target: PIM2 transgenic cells (Ba/F3) (Homo sapiens, UniProt Q9P1W9); assay: Proliferation inhibitory effect on PIM2 transgenic cells; assay type: cell-based, mouse; settings: proliferation inhibition, 72 hours, Cell Counting Kit-8, read-out: PIM2 IC50
Excerpt: (§1) Human PIM1, 2, and 3 genes were inserted into the multi-cloning sites of retrovirus expression vectors pMYs-IRES-GFP, respectively, to prepare gene transfer vectors. Then, each gene transfer vector was introduced into packaging cells PLAT-E derived from a human fetal kidney cell line in the logarithmic growth phase, using a transfection reagent (FuGENE6, Promega Corporation). Since the culture supernatant of PLAT-E after gene transfer contained virus particles for gene transfer, the culture supernatant was collected and used as a medium for gene transfer. The medium for gene transfer was added to a plate coated with RetroNectin, and the plate was incubated to attach the virus particles to the plate. Then, a mouse pro-B cell line Ba/F3 in the logarithmic growth phase was seeded on the plate and infected with the virus to prepare PIM1, 2, or 3 transgenic cells that proliferate in a PIM 1, 2, or 3-dependent manner. The expression of PIM1, 2, or 3 protein in each cell was confirmed by Western blotting.
(§2) Each test substance was prepared to 10 mM with dimethylsulfoxide (DMSO), and diluted with DMSO so as to have concentrations of 3000, 1000, 300, 100, 30, 10, 3, and 1 μM. Moreover, each dilution was further diluted 10-fold with distilled water to prepare a test substance solution.
(§3) PIM1, 2, 3-expressing cells were seeded on a 96-well plate, and each test substance solution prepared the next day was added such that final concentrations were 10000, 3000, 1000, 300, 100, 30, 10, 3, and 1 nM. 72 hours after the addition, 10 μL of Cell Counting Kit-8 (DOJINDO LABORATORIES) was added to each well. After incubation for 1 to 4 hours, absorbance OD450 at 450 nm was measured. In addition, absorption OD650 at 650 nm as a reference wavelength was measured.
(§4) OD450-OD650 for each condition was calculated, and then the inhibition rates when OD450-OD650 of negative control (DMSO only) and OD450-OD650 of Blank (without cells) were set to 0% and 100%, respectively, were calculated. Then, non-linear regression analysis was performed for logarithmic dose and inhibition rate using a two-parameter logistic model to estimate IC50 values.
(§5) For the compounds with the following Example numbers, in addition to the above proliferation inhibitory effect on PIM1 transgenic cells, the proliferation inhibitory effect on PIM2 transgenic cells and the proliferation inhibitory effect on PIM3 transgenic cells were calculated as IC50.

[3] = target: PIM3 transgenic cells (Ba/F3) (Homo sapiens, UniProt Q86V86); assay: Proliferation inhibitory effect on PIM3 transgenic cells; assay type: cell-based, mouse; settings: proliferation inhibition, 72 hours, Cell Counting Kit-8, read-out: PIM3 IC50
Excerpt: as §1, §2, §3, §4, §5

NZB/W F1 mice = assay: Inhibitory effect on systemic lupus erythematosus and lupus nephritis model animals; assay type: in vivo; settings: for survival rate / onset rate of proteinuria / anti-double-stranded DNA antibody titer: NZB/W F1 mice, 15, 30 mg per 1 kg twice a day for 15 weeks; for onset rate of proteinuria: UACR>20 = proteinuria-positive; for anti-double-stranded DNA antibody titer / Anti-double-stranded DNA antibody titer (U/mL): plasma, final day of administration; for Number of proteinuria-positive individuals: UACR>20 defined as positive; for Anti-double-stranded DNA antibody titer (U/mL): median of group; for Number of dead/euthanized individuals: until the final day of administration
Excerpt: For the evaluation of test substances, NZB/W F1 mice (29, 30-week-aged female), which are model mice with systemic lupus erythematosus and lupus nephritis, were used. These mice are a spontaneous animal model, and an increase in autoantibodies such as anti-double-stranded DNA antibody, which is considered to be a cause of systemic lupus erythematosus, and proteinuria, which is a characteristic of lupus nephritis, are observed for the mice, and the mice are known to die from nephritis.
Urine was collected before the start of the test, and individuals with a urinary albumin concentration÷urinary creatinine concentration (UACR) value of 5 or more were excluded. Furthermore, the anti-double-stranded DNA antibody titer in blood and the body weight were measured before the start of the test, and 53 mice were grouped into 5 groups of 10 or 13 mice based on blood anti-double-stranded DNA antibody titer, age, and body weight. Since early death was expected for the vehicle-administered group, the test was conducted with 13 mice as this group.
Example 75 and Example 202 were used as test substances, and a 0.5% methyl cellulose solution which is a vehicle was used as a control. Example 75 and Example 202 were prepared into solutions of 1.5 and 3.0 mg/mL by being dissolved in a 0.5% methyl cellulose solution.
After grouping, the 0.5% methyl cellulose solution or the 1.5 or 3.0 mg/mL solution of Example 75 or Example 202 was administered to each of the mice of the 7 groups. The single dose was set to 10 mL per 1 kg of body weight, and the dose was administered twice a day. Under these conditions, the dose per time is 15, 30 mg per 1 kg of body weight. Administration was started on 29 or 30-week-aged mice, and was performed daily for 15 weeks until the age of 44 or 45 weeks.
Blood was collected from the tail vein of each of all the surviving individuals on the final day of administration. Then, the blood was centrifuged and the plasma was separated and taken. The plasma was diluted 3000-fold, and the anti-double-stranded DNA antibody titer was measured by ELISA method (Levis anti-dsDNA-mouse ELISA Kit, FUJIFILM Wako Shibayagi Corporation). Measurement and analysis were performed according to the protocol of the Kit.
All the surviving individuals on the final day of administration were bred in a mouse metabolism cage (CLEA Japan, Inc.) for 16 hours, and urine was collected from each individual. The solids were removed by centrifuging the urine and collecting the supernatant. An automatic analyzer (JCA-BM6050 BioMajesty, JEOL Ltd.) was used to measure the albumin concentration and creatinine concentration in urine after centrifugation. A urinary albumin/creatinine ratio (UACR) was calculated by dividing the albumin concentration by the creatinine concentration, and individuals with UACR>20 were defined as proteinuria-positive individuals. In addition, for almost all the individuals that died before the final day of administration, UACR>20 was confirmed in urinalysis immediately before death, and thus these individuals were treated as proteinuria-positive individuals.

[4] = single dose 15 mg/kg twice a day for 15 weeks
[5] = single dose 30 mg/kg twice a day for 15 weeks

Sequence of PIM2 transgenic cells (Ba/F3) (Q9P1W9 whole entry, stated change not applied): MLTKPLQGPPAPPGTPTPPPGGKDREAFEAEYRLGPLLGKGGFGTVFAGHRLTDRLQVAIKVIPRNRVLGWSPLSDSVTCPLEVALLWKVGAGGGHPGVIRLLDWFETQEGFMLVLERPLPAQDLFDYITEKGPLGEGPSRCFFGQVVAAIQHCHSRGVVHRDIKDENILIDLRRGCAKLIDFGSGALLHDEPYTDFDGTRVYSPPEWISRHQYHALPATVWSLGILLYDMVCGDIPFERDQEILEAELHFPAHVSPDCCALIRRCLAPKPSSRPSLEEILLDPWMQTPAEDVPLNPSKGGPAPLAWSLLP
Sequence of PIM1 transgenic cells (Ba/F3) (P11309 whole entry, stated change not applied): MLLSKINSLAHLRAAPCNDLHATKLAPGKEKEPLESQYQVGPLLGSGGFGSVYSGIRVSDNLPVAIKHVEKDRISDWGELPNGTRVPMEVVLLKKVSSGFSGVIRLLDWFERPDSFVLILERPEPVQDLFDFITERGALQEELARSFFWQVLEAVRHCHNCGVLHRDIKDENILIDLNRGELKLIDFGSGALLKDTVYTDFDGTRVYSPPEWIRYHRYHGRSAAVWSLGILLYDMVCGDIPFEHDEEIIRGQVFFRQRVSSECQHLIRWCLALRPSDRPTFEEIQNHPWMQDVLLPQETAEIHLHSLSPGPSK

Compound	GI50 [1] [µM]	GI50 [2] [µM]	GI50 [3] [µM]	survival rate (NZB/W F1 mice)	onset rate of proteinuria (NZB/W F1 mice)	anti-double-stranded DNA antibody titer (NZB/W F1 mice)	Number of proteinuria-positive individuals (NZB/W F1 mice; [4])	Anti-double-stranded DNA antibody titer (U/mL) (NZB/W F1 mice; [4])	Number of dead/euthanized individuals (NZB/W F1 mice; [4])	Number of proteinuria-positive individuals (NZB/W F1 mice; [5])	Anti-double-stranded DNA antibody titer (U/mL) (NZB/W F1 mice; [5])	Number of dead/euthanized individuals (NZB/W F1 mice; [5])
C[C@H](Nc1cc(-c2n[nH]c(=O)o2)cc(F)c1OC(F)(F)F)C1CCNCC1.Cl [Example 202, 5-[3-fluoro-5-{[(1S)-1-(piperidin-4-yl)ethyl]amino}-4-(trifluoromethoxy)phenyl]-1,3,4-oxadiazol-2(3H)-one hydrochloride]	0.026	0.79	0.078	improving the survival rate	decreasing the onset rate of proteinuria	suppressing an increase in anti-double-stranded DNA antibody titer	1/10	568	1/10	1/10	112	1/10
C[C@H](Nc1cc(-c2n[nH]c(=O)o2)cc(F)c1C(F)(F)F)C1CCNCC1.Cl [Example 75, 5-[3-fluoro-5-{[(1S)-1-(piperidin-4-yl)ethyl]amino}-4-(trifluoromethyl)phenyl]-1,3,4-oxadiazol-2(3H)-one hydrochloride]	0.024	0.62	0.12	improving the survival rate	decreasing the onset rate of proteinuria	suppressing an increase in anti-double-stranded DNA antibody titer	2/10	423	0/10	0/10	306	0/10
